Assay results: patent US20030060511A1, “Method for treatment of ocular hypertension and glaucoma” (SUCAMPO AG, priority 2001, published 2003)

How the values were obtained:
[1] = system: IOP in Normal Monkeys; test: IOP in normal monkeys after single topical application of eye drops, saline in the other eye (Example 2); assay type: in vivo, cynomolgus monkeys; details: 0.005% eye drops, 30 μL/eye, IOP measured up to 24 hours, compared to saline eye
Protocol: Male cynomolgus monkeys (eight monkeys, body weights 3.0-4.5 kg) were used. To the right eyes of the monkeys, 30 μL/eye of 0.005% 13,14-dihydro-15-keto-18-phenyl-19,20-dinor-PGF2α-isopropyl ester eye drops or 0.005% 13,14-dihydro-15-keto-17-phenoxy-18,19,20-trinor-PGF2α-isopropyl ester eye drops were administered, and to the left eyes, 30 μL/eye of saline was administered. IOP of the animals were determined.
(§1) The animals were retained in the sitting position under systemic anesthesia with intramuscular injection of ketamine hydrochloride (Ketalar® 50, Sankyo Co. Ltd.) 7.5-10 mg/kg and their ocular surfaces were anesthetized with 0.4% oxybuprocaine hydrochloride (Benoxil® 0.4% solution, Santen Pharmaceuticals Co., Ltd.). After that, the IOP was measured with a pneumatonometer (Model 30 Classic, Mentor O & O, Inc.). The IOPs were measured before (0 hour) and at 2, 4, 8, 12 and 24 hours after the administration of test substances.
Changes of the IOP from that of time 0 (ΔIOP) obtained in the each test eyes ([…] eyes) were compared to those obtained in the vehicle administrated eyes (control group) at each measurement times.

[2] = system: IOP in Normal Monkeys; test: IOP in normal monkeys after single topical application of eye drops (Example 1); assay type: in vivo, cynomolgus monkeys; details: for IOP lowering (change in IOP from time 0, ΔIOP): single administration, significant vs vehicle control (Dunnett's test)
Protocol: Male cynomolgus monkeys (eight monkeys, body weights 3.0-4.5 kg) were used. To the right eyes of the monkeys, 30 μL/eye of 0.005% 13,14-dihydro-15-keto-17-phenyl-18,19,20-trinor-PGF2α-isopropyl ester eye drops, 0.005% 13,14-dihydro-17-phenyl-18,19,20-trinor-PGF2α-isopropyl ester (latanoprost) eye drops or the vehicle was administered once with an interval of at least seven days, and the IOPs in the respective animals was measured.
as §1, with “Inc.). The IOP was measured before” for “Inc.). The IOPs were measured before”, “administration of the test substances.” for “administration of test substances.”
Changes of the IOP from that of time 0 (ΔIOP) obtained in the each test groups were compared to that obtained in the vehicle-administered control group at each measurement times. Statistical analysis was made with the Dunnett's multiple comparison test. Critical rates less than 5% were evaluated to be statistically significant.

[3] = target: FP receptor (Homo sapiens, UniProt P43088); details: background art; cited from earlier work
Sequence of FP receptor (P43088 whole entry): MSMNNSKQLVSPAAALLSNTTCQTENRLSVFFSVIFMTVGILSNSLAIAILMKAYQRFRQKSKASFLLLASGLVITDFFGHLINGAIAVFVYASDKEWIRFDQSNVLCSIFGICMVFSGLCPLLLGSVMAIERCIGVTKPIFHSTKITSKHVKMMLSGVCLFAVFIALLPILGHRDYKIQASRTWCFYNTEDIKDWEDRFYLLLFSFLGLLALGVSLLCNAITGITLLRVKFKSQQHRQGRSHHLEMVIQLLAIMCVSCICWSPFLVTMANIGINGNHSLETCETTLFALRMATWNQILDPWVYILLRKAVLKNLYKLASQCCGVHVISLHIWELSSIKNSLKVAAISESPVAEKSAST

| Compound | Duration of IOP lowering by single administration [1] | Affinity with / effect on FP receptor [3] | further results |
| --- | --- | --- | --- |
| CC(C)OC(=O)CCC/C=C\CC1C(O)CC(O)C1CCC(=O)CCOc1ccccc1 (stereo not drawn) [13,14-dihydro-15-keto-17-phenoxy-18,19,20-trinor-PGF2α-isopropyl ester] | can lower the IOP and keep the low IOP throughout a day | – | – |
| CC(C)OC(=O)CCC/C=C\C[C@@H]1[C@@H](CCC(=O)CCc2ccccc2)[C@H](O)C[C@@H]1O [13,14-dihydro-15-keto-17-phenyl-18,19,20-trinor-PGF2α-isopropyl ester] | – | – | Difference of ΔIOPs versus latanoprost group ([2]; 0.005% eye drops each, at any time point of the measurement (2-24 hours)): no significant difference; Duration of IOP lowering by single administration ([2]; 0.005% eye drops, 30 μL/eye, IOP measured up to 24 hours): can lower the IOP and keep the low IOP throughout the day; IOP lowering (change in IOP from time 0, ΔIOP) ([2]; 0.005% eye drops, 30 μL/eye, 4 hours after administration): 2.3±0.4 mmHg; IOP lowering (change in IOP from time 0, ΔIOP) ([2]; 0.005% eye drops, 30 μL/eye, 8 hours after administration): 2.1±0.4 mmHg; IOP lowering (change in IOP from time 0, ΔIOP) ([2]; 0.005% eye drops, 30 μL/eye, 12 hours after administration): 2.4±0.5 mmHg |
| CC(C)OC(=O)CCC/C=C\CC1C(O)CC(O)C1CCC(=O)CCCc1ccccc1 (stereo not drawn) [13,14-dihydro-15-keto-18-phenyl-19,20-dinor-PGF2α-isopropyl ester] | can lower the IOP and keep the low IOP throughout a day | – | – |
| CCCCC[C@H](O)/C=C/[C@@H]1[C@@H](C/C=C\CCCC(=O)O)[C@@H](O)C[C@H]1O [PGF2α] | – | strong affinity | – |
| CCCCCCCC(=O)CC[C@@H]1[C@@H](C/C=C\CCCC(=O)OC(C)C)[C@@H](O)C[C@H]1O [isopropyl unoprostone, 13,14-dihydro-15-keto-20-ethyl-PGF2α-isopropyl ester] | – | substantially no effect | – |
| CC(C)OC(=O)CCC/C=C\C[C@@H]1[C@@H](CC[C@@H](O)CCc2ccccc2)[C@H](O)C[C@@H]1O [latanoprost, 13,14-dihydro-17-phenyl-18,19,20-trinor-PGF2α-isopropyl ester] | – | strong affinity | – |
